For orientation: inhibition means the share of the control response that was lost under treatment. Usually IC50 stands for the midpoint of a concentration-inhibition curve. A word on the viability: it is a read-out of living cells in per cent, often relative to untreated cells.

In test [1] the test system is MDA-MB-468. Description: Cell viability assay by WST-1 on MDA-MB-468. The format is cell-based, human. The note with it: 10 μM, two days, breast MDA-MB-468. The method, then: Three tumor cells were tested, i.e., HCT116 (colorectal cancer), AsPC-1 (pancreatic cancer) and MDA-MB-468 cell lines (breast cancer). Human colorectal carcinoma cell line HCT116 (catalog number: BCRC 60349, Bioresource Collection and Research Center (BCRC), Hsinchu City, Taiwan) was maintained in the culture medium: McCoy's 5a medium (catalog number: 16-600-082, Gibco, Waltham, Mass.) with 1.5 mM L-glutamine (Gibco) and 10% fetal bovine serum (FBS, Gibco). Human pancreatic adenocarcinoma cell line AsPC-1 (catalog number: BCRC 60494, BCRC) was maintained in the culture medium: RPMI 1640 medium (catalog number: 11875168, Gibco) with 2 mM L-glutamine, 4.5 g/L glucose (Gibco), 10 mM HEPES (Gibco), 1 mM sodium pyruvate (Gibco) and 10% fetal bovine serum. […]
For cell viability assay, tumor cells (1×10^5/mL) were suspended in the medium without testing drugs and then inoculated in 96-well plates (100 μL per well) for attachment first. […] Cell proliferation was quantified by using a Premix WST-1 Cell Proliferation Assay System (Takara, Japan). According to the manufacturer's protocol, cell proliferation was determined by measuring the optical density (OD) after the reaction for 3 hours by recording the absorbance at 450 nm using a plate reader (Multiskan Go, Thermo Fisher Scientific).
(Tetrazolium assays rely on reduction of a dye to a coloured formazan, in cell work by metabolically active cells.)

The target in test [2] is ATG4B (Homo sapiens, UniProt Q9Y4P1). In words: In vitro cleavage assay of ATG4B catalytic activity (western blot of tagged LC3B). It is filed as biochemical. For orientation: In western blotting, separated proteins are transferred to a membrane and probed.
ATG4B, sequence (Q9Y4P1 whole entry): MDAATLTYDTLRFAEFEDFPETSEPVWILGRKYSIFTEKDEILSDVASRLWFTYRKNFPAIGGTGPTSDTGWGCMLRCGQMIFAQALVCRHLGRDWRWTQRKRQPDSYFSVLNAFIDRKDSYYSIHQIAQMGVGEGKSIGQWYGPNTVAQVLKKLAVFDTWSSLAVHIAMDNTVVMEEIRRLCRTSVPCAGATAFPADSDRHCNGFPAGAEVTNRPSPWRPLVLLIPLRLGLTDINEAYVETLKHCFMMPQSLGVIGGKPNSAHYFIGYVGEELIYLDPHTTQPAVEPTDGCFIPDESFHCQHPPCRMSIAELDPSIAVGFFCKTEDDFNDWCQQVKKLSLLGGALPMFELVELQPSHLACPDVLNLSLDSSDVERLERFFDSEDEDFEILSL
Description: The reagents were incubated at 37° C. for 30 minutes and then subjected to western blotting. The intensity of the band in the gel was calculated by using Image Studio Lite from LI-COR Biosciences or ImageJ.
The full-length LC3B fusion protein was used as the negative control and as the positive control when also incubated with ATG4B (FIG. 22A). […] A peptide that can inhibit ATG4B activity will weaken the fluorescence signal produced by the cleaved PLA2.
Test [3] has as its system shCtrl/HCT116. In words: Cell viability assay on shCtrl/HCT116 (control strain). The format is cell-based, human. The following applies: HCT116 (FIG. 13A, shCtrl/HCT116).
In test [4] the test system is shATG4B/HCT116. Description: Cell viability assay on shATG4B/HCT116 (ATG4B silencing strain). It is filed as cell-based, human.
Test [5] concerns LC3B-II. Description: Western blotting of LC3B-II in AK4.4 and AsPC-1 cells. It is filed as cell-based. The note with it: AK4.4 and AsPC-1, western blotting. How it is done:
Cells were seeded in a 12-well plate (10^5 cells/well) and cultured in serum-free medium (SFM) with different concentrations of drugs for six hours. The plate was then washed with phosphate-buffered saline (PBS), and cells were lysed with 100 μL radioimmunoprecipitation assay buffer (RIPA buffer) for each well. The cell extracts were mixed with 4×dye (900 μL of 4×Laemmli sample buffer+100 μL of 2-mercaptoethanol) at 95° C. for ten minutes and separated by sodium dodecyl sulfate-polyacrylamide gel electrophoresis (SDS-PAGE). The fractions were then transferred to a polyvinylidene fluoride (PVDF) membrane and immersed in 5% nonfat milk at room temperature for one hour. Afterward, the transfer membrane was incubated with protein-specific primary antibodies at 4° C. overnight, washed by PBST (0.1% Tween 20 in PBS), and then incubated with horseradish peroxidase (HRP)-conjugated secondary antibodies at room temperature for one hour. The blots washed by PBST were then detected by enhanced chemiluminescence (ECL) for the quantification of proteins.

Test [6] has as its system AK4.4 pancreatic ductal adenocarcinoma (PDAC) xenograft.
Test [7] concerns AK4.4. In words: Cell viability assay (MTT) on AK4.4. The note with it: for IC50: Mus musculus.
Description: (§1) The cell viability was measured using the MTT assay or CellTiter-Glo Luminescent Cell Viability Assay. For MTT assay, mouse AK4.4 (1,000 cells/well) and human AsPC-1 (1,500 cells/well) cells were seeded in 96-well plates and cultured in serum-free medium (SFM) containing indicated concentrations of drugs for 48 hours. To measure the cell viability, 15 μL MTT (3-(4,5-dimethylthiazol-2-yl)-2,5-diphenyltetrazolium bromide, 5 mg/mL in PBS) was added in each well and kept at 37° C. for three hours. The precipitated crystals were then dissolved in 50 μL DMSO, and the absorbance at 570 nm was measured by Multiskan GO Microplate Spectrophotometer (Thermo Scientific, USA) to estimate the cell survival rate. To quantify the drug combination effect, the combination index was calculated when the cell viability was reduced by 50% using the following Equation (1):
Test [8] relates to AsPC-1. In words: Cell viability assay (MTT) on AsPC-1.
Description: as §1
In test [9] the target is T1, 3CL^pro (Severe acute respiratory syndrome coronavirus 2, UniProt P0DTD1).
T1 construct: A 3CL^pro (Cat. #78042-1) assay kit (BPS Bioscience, CA, USA); purchased BPS Bioscience 78042-1
Description: FRET-based 3CL^pro enzyme activity assay. The following applies: single use, 3 to 90 μM. It is filed as biochemical.
Description: The intensity of this fluorescence is proportional to the protease activity.
Inhibition percentage is calculated by “1−(Itest−Isubstrate)/(Ipositive−Isubstrate),” where I represents the value of inhibition ability.
The FRET (fluorescence resonance energy transfer)-based assay was designed for 3CL^pro activity assay and explained in FIG. 10. The 3CL^pro enzyme assay was developed in a 96-well black microplate with a total volume of 50 μL. 30 μL of 0.5 ng/μL enzyme in a reaction buffer was added into each well, followed by the addition of 10 μL substrate solution to a final concentration of 40 μM.

For test [10], the target named is LC3B substrate of the ATG4B activity reporter assays (cleavage releases PLA2), Q9GZQ8. Description: cell-based or functional assay.
Where [11] appears, read: Vb concentration for 50% reduction of viability in combination with 0.50 μM Mx.

Where “and” joins values, the source holds several entries; their conditions need not be identical. Equal values may be shown once. Read-outs that look alike come from different tables or passages of the source.

On to `CC1=C(/C=C/C(C)=C/C=C/C(C)=C/C(=O)Nc2ccc(O)cc2)C(C)(C)CCC1` [Fenretinide], for which the “suppression of tumor cell growth” value in [1] was “seems to be a better breast cancer inhibitor”.

As for `CCC1=C[C@@H]2CN(C1)Cc1c([nH]c3ccccc13)[C@@](C(=O)OC)(c1cc3c(cc1OC)N(C)[C@H]1[C@@](O)(C(=O)OC)[C@H](OC(C)=O)[C@]4(CC)C=CCN5CC[C@]31[C@@H]54)C2` [Vinorelbine], the “reduction of the ATG4B activity on LC3B catalysis” value in test [2] (10 μM vinorelbine, FIG. 4B) came to 42%. Further, in test [2] (read-out: inhibition of ATG4B catalysis), the inhibition at 10 µM amounted to 58%. In addition, the reduced cell viability in [3] (4 μM) is 55%; in test [3] (10 μM), 63%; in test [3] (20 μM), 68%; in [4], 37% and 43% and 54%; in test [7] (AK4.4, 5 μM), 62%; in test [7] (AK4.4, 10 μM), 51%. Moreover, the reduced cell viability is on record as 24% in test [7] (AK4.4, 20 μM); 68% in test [8] (AsPC-1, 5 μM); 61% in test [8] (AsPC-1, 10 μM); 46% in [8] (AsPC-1, 20 μM). Also, the “abundance of LC3B-II in cells” value in [5] is listed as “accumulation of LC3B-II”. Besides, the “tumor size compared to the control group” value in [6] (20 mg/kg, day 16) amounted to 70%. In addition, the “tumor size measured on day 16 versus control group” value in [6] (dose of 10 mg/kg, days 3, 5, 7, 10, 12, 14) is given as “less than half of the tumor size in the control group”. Moreover, the 50% inhibitory concentration (IC50) in [7] (read-out: IC50, Vb, vinorelbine alone, AK4.4 (Table 8)) was 10.4 µM; in [7] (read-out: IC50, Vb, vinorelbine alone, AK4.4 (Table 14)) it was 7.19 µM; in [8] (Homo sapiens, ASPC1, read-out: IC50, Vb, vinorelbine alone, AsPC-1 (Table 9)), 17.4 µM; in test [8] (Homo sapiens, ASPC1, read-out: IC50, Vb, vinorelbine alone, AsPC-1 (Table 15)) it was 33.1 µM. In addition, the results for the “CVb, 50” value in test [7] (setting [11]), in test [8] (setting [11]) and in test [8] (Vb concentration for 50% reduction of viability in combination with 1.00 μM Mx) were 3.91 µM, 18.94 µM and 9.05 µM, respectively. In [8] (Homo sapiens, ASPC1, read-out: cell viability, AsPC-1, 5 μM vinorelbine alone), the viability at 5 µM came to 68%. For the same molecule, the viability at 10 µM in test [8] (Homo sapiens, ASPC1, read-out: cell viability, AsPC-1, 10 μM vinorelbine alone) stood at 61%. The viability at 20 µM in [8] (Homo sapiens, ASPC1, read-out: cell viability, AsPC-1, 20 μM vinorelbine alone) worked out at 46%.

For the molecule `CC(C)C[C@@H](N)C(=O)N[C@H]1C(=O)N[C@@H](CC(N)=O)C(=O)N[C@H]2C(=O)N[C@H]3C(=O)N[C@H](C(=O)N[C@H](C(=O)O)c4cc(O)cc(O)c4-c4cc3ccc4O)[C@H](O)c3ccc(c(Cl)c3)Oc3cc2cc(c3O[C@@H]2O[C@H](CO)[C@@H](O)[C@H](O)[C@H]2O[C@H]2C[C@](C)(N)[C@H](O)[C@H](C)O2)Oc2ccc(cc2Cl)[C@H]1O` [norvancomycin], the “inhibition of 3CL^pro” value in test [9] was in the range of 20 to 30%.

Regarding Ac-YDTLRFAEF-NH2 [N-term-9 (Ac-…-NH2)], in test [10], the inhibition to ATG4B activity (ATG4B activity reporter assays) stood at 25%.

(Values after patent US20230187019A1, “METHOD FOR DETERMINING A DRUG COMBINATION VIA A BLOCKING MODEL OF A MULTI-SITE-TARGETED PROTEIN AND APPLICATIONS THEREOF” (National Tsing Hua University, priority 2021, published 2023).)
